We go through 2 compounds from patent publication US20070043082A1, “Use of antimuscarinic drugs” (priority 2005, published 2007).

In data set [1] the test system is spontaneous recurrent epileptic seizures (pilocarpine model of epilepsy). Nature of the data set: pilocarpine model of epilepsy in rats: video monitoring of spontaneous epileptic seizures after status epilepticus. Format: in vivo, Wistar rats. The text has this:
The current invention was based on an experimental model of epilepsy in which in rats the induction of a brain lesion is accomplished through the administration of pilocarpine, a cholinergic agonist. According to the original description of this model, approximately 20-30 days after pilocarpine injection in either rats or mice, there is the onset of spontaneous recurrent epileptic seizures (Turski W A, Cavalheiro E A, Schwarz M, Czuczwar S J, Kleinrok Z and Turski L. Limbic seizures produced by pilocarpine in rats: behavioural, electroencephalographic and neuropathological study. Behavioral Brain Research, 9:315-335, 1983; Mello L E A M, Cavalheiro E A, Babb T L, Kupfer W R, Pretorius J K, Tan A M and Finch D M. Circuit mechanisms of seizures in the pilocarpine model of chronic epilepsy: cell loss and mossy fiber sprouting. Epilepsia 34:985-995, 1993). Due to its special features the pilocarpine model is currently one of the 3 most widely used experimental models in the study of epilepsy.
(§1) Biperiden, together with atropine, is a classic […] and is known to block muscarinic receptors. These drugs are known by their abilities in blocking the cholinergic transmission which is otherwise mediated through muscarinic receptors. For our experiments we used Wistar, adult, male, rats which were maintained under controlled conditions of temperature, light/dark cycles and kept in groups of up to 6 animals in polypropilene boxes with free access to tap water and rat chow pellets. Rats were subject to the intraperitoneal administration of pilocarpine in a dose of 320 mg/Kg for the induction of status epilepticus.
As expected, the systemic administration of pilocarpine lead to a sequence of behavioral alterations such as akinesia, body tremor and/or myoclonic jerks of the head and oro-facial stereotyped movements accompanied by profuse salivation. Status epilepticus, a condition of uninterrupt epileptic seizure, developed on average 19±5 min after the injection of pilocarpine. Three hours after the onset of status epilepticus the animals in the experimental group (n=10) were intraperitoneally injected with the first initial dose of biperiden (8 mg/kg). This dose represents the concentration needed to provoke memory impairments in rodents, (Roldan G, Bolanos-Badillo E, Gonzales-Sanches H, Quirarte G L and Prado-Alcala R A J W. Selective M1 muscarinic receptor antagonists disrupt memory consolidation of inhibitory avoidance in rats. Neurosci. Lett., 230:93-6, 1997).
For the animals in the control group (n=6), […] after the onset of status epileticus, administration of sterile saline solution (0.9% NaCl), rather than biperiden, was started with a similar protocol.
In the pilocarpine model of epilepsy, a few weeks after the administration of pilocarpine and the induction of status epilepticus, the animals develop spontaneous epileptic seizures which recur for as long as the animal are allowed to live. It is assumed that such epileptic condition adequately mimics some types of epileptic seizures in humans and may closely reflect the sequence of events that take place in post-traumatic epilepsies.
Approximately 15 to 20 days after the induction of status epilepticus, the reported duration of the latent period for the onset of spontaneous seizures, monitoring of the behavioral seizures with a videocamera for approximately 12 hours/week was initiated. Based on our initial hypothesis, that the experimental group (treated with biperiden) would either have a substantial reduction or would show no spontaneous epileptic seizures, and therefore to avoid a false negative result, the sampling rate for video monitoring of these animals was performed for 24 hours/week. Animals were video monitored for approximately 120 days after the induction of status epilepticus. The recorded video tapes were routinely assessed in a 29 inches wide television screen and the seizures observed for each animal were recorded.

For data set [2] the following is noted: species and source not stated; cited from earlier work.
The subject of the next data set is status epilepticus. Nature of the data set: induction of status epilepticus by systemic pilocarpine. It counts as in vivo, Wistar rats. The following applies: pilocarpine 320 mg/Kg intraperitoneal; average.
Description: as §1
As expected, the systemic administration of pilocarpine lead to a sequence of behavioral alterations such as akinesia, body tremor and/or myoclonic jerks of the head and oro-facial stereotyped movements accompanied by profuse salivation. Status epilepticus, a condition of uninterrupt epileptic seizure, developed on average 19±5 min after the injection of pilocarpine. Three hours after the onset of status epilepticus the animals in the experimental group (n=10) were intraperitoneally injected with the first initial dose of biperiden (8 mg/kg). […]

Structures are written as SMILES. “Also recorded” adds a separate entry of the source.

For the compound `OC(CCN1CCCCC1)(c1ccccc1)C1CC2C=CC1C2` (stereo not drawn) [biperiden], the “Length of the latent period for the onset of the first recorded spontaneous epileptic seizure, Latency” value in data set [1] (biperiden 8 mg/kg i.p. every 8 hours for 10 days, started 3 h after onset of status epilepticus, n=10, mean ± standard deviation, p < 0.03 vs control (Mann-Whitney)) worked out at 6.0±1.1 weeks. For the same compound, the “Frequency of spontaneous epileptic seizures, Spontaneous seizures/h” value in data set [1] (biperiden 8 mg/kg i.p. every 8 hours for 10 days, n=10, monitored about 120 days, mean ± standard deviation, p < 0.02 vs control (Mann-Whitney)) worked out at 0.0202 ± 0.0047 seizures/h. The “frequency of epileptic seizures in animals that developed seizures (in words)” value in data set [1] (compared to animals not treated with biperiden) is “significantly lesser frequency”. Further, in data set [1] (control (saline) vs experimental (treated with biperiden)), the “mean frequency of spontaneous epileptic seizures of the control group relative to the experimental group” value was 2 times. Further, the “qualitative or quantitative nature of each individual seizure, difference between the two groups” value in data set [1] (experimental (biperiden) vs control) is “no differences”. For the same compound, in data set [1] (experimental (biperiden) vs control (saline)), the “mean latency of the experimental group relative to the control group” value is recorded as “two times greater; also recorded: twice that of the control group”. The “onset of spontaneous recurrent seizures, i.e., epilepsy (in words)” value in data set [1] (prophylactic use after pilocarpine lesion) is on record as “significantly retarded or even suppressed”. Besides, the half-life in data set [2] is 24 ± 1.2 h.
On to `CC[C@@H]1C(=O)OC[C@@H]1Cc1cncn1C` [pilocarpine], for which the “time to development of status epilepticus after injection” value in the data set on status epilepticus worked out at 19 ± 5 min.
